The results in this text go back to article doi:10.1101/2025.01.28.635346v1 (bioRxiv, 2025).

Each structure is given as a SMILES string. Bridge positions count the residues as written; N and C are the ends. Peptide text beside a SMILES is read from it.

In experiment [1] the target is T1, integrin αvβ6 (Homo sapiens, UniProt P06756+P18564). The experiment in a line: ELISA competition assay, integrin αvβ6 binding to LAP. For orientation: An ELISA detects its analyte on a solid surface through an enzyme-linked reagent.
For experiment [2], the target named is T1, integrin αvβ6. The experiment in a line: AlphaLISA competition assay vs LAP, biotinylated αvβ6. In kind it is binding.
Experiment [3] concerns αvβ6/8 vs other RGD-integrins. The experiment in a line: Selectivity and potency gain for αvβ6/8, worked out from integrin IC50 values. It is filed as binding, human. The conditions noted are these: 24 and 30 vs 14; 35 vs 28; 36 vs 30; 47 vs 36.
Experiment [4] addresses T2, Mouse αvβ6 (Mus musculus, UniProt P43406+Q9Z0T9).
T2 sequence (P43406 31-988 limits assumed): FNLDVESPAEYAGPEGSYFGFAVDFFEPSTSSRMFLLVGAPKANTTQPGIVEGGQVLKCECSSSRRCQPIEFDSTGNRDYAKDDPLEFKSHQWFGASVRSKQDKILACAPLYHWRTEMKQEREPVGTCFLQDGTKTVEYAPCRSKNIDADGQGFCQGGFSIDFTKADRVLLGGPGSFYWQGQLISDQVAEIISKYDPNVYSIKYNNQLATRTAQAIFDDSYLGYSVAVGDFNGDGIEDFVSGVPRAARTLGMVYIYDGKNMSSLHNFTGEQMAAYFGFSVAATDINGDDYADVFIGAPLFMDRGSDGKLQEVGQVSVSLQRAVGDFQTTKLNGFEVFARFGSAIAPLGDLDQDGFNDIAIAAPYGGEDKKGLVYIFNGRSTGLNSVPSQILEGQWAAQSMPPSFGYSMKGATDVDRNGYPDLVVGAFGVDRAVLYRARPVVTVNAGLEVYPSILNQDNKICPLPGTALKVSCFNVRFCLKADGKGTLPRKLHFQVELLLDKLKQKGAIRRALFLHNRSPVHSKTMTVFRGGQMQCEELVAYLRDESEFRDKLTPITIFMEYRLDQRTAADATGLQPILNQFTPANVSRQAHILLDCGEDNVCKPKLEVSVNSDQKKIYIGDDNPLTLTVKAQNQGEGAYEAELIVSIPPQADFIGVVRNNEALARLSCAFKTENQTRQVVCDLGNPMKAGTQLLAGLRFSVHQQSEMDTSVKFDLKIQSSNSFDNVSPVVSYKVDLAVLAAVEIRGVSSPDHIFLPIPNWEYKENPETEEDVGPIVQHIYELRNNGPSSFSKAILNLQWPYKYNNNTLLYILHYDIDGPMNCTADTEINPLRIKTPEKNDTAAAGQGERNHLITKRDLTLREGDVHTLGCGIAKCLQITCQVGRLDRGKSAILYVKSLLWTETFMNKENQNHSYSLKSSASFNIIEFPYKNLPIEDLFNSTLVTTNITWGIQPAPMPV
T2 sequence (Q9Z0T9 22-707 limits assumed): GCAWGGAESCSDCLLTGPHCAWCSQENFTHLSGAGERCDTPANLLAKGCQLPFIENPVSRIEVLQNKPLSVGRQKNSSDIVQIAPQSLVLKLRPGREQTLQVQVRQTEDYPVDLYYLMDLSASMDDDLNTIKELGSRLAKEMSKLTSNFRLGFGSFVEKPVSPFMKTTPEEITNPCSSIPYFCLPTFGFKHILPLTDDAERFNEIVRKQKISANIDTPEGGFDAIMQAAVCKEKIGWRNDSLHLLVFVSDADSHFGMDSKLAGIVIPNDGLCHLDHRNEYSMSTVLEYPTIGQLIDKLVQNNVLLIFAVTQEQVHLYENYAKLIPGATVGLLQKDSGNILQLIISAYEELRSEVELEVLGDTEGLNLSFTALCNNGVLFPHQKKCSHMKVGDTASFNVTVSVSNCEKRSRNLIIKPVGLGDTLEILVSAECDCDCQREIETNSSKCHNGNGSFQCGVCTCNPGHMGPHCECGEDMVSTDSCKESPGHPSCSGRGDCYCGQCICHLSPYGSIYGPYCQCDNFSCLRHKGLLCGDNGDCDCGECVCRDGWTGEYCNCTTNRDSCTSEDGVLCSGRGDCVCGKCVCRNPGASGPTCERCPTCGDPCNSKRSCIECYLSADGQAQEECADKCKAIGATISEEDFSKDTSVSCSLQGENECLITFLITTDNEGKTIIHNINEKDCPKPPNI
The experiment in a line: ELISA competition assay, mouse integrin αvβ6. In kind it is binding.

T1 sequence (P06756 31-992 limits assumed): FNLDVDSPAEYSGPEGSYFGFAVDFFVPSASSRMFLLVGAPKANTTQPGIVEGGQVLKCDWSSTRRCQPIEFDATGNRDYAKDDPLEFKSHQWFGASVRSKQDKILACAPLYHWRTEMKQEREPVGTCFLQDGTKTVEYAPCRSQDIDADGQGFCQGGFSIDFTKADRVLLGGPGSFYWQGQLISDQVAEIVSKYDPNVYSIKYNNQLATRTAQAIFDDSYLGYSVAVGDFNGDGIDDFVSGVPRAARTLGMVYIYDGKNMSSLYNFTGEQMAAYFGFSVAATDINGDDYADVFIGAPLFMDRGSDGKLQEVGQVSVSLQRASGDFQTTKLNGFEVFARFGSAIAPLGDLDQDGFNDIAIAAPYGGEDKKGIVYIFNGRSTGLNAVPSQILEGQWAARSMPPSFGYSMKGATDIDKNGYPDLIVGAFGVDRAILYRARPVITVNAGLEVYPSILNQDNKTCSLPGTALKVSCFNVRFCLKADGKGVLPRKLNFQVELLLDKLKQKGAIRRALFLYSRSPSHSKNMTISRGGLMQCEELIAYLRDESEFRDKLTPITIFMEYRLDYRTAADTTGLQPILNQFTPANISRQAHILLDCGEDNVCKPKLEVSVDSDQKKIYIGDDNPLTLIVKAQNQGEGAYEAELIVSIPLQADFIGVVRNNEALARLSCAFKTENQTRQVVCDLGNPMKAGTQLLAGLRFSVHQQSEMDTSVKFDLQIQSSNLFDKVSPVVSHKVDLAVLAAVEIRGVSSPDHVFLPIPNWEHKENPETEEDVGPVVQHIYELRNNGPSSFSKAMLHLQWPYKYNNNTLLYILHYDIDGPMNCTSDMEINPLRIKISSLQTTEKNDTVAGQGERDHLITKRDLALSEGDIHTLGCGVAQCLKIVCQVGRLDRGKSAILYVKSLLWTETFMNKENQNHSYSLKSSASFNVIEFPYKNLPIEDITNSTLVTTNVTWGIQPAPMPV
T1 sequence (P18564 22-707 limits assumed): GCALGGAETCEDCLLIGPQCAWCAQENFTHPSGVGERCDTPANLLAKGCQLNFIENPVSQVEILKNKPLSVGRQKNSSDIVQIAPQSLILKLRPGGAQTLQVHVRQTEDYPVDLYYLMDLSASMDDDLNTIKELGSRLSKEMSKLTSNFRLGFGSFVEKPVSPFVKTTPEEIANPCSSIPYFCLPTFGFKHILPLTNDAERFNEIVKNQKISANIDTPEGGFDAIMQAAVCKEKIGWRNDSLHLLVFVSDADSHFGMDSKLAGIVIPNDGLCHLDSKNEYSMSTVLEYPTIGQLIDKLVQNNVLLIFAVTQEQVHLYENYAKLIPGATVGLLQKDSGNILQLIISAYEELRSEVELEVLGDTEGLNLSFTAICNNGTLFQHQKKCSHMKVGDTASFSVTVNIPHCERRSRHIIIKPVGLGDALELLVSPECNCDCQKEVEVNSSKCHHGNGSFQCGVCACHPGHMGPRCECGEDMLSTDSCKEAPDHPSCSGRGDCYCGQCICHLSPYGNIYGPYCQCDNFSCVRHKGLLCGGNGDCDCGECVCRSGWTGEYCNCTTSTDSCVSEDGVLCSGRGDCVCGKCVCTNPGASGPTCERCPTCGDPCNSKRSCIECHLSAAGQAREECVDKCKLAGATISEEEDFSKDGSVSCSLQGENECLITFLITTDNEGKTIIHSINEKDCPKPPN

Take `CC(C)C[C@H](NC(=O)[C@H](CC(=O)O)NC(=O)CNC(=O)[C@H](CCCNC(=N)N)NC(=O)[C@@H](NC(=O)[C@H](Cc1ccccc1)NC(=O)[C@H](Cc1ccc(O)cc1)NC(=O)[C@@H]1CCC(=O)NCC(=O)NCC(=O)N[C@@H](C)C(=O)NCC(=O)N[C@@H](Cc2c[nH]cn2)C(=O)N[C@@H](C(C)C)C(=O)N2CCC[C@H]2C(=O)N1)C(C)C)C(=O)N[C@@H](CCC(N)=O)C(=O)N[C@@H](CO)C(=O)N[C@@H](Cc1ccccc1)C(=O)N[C@@H](Cc1ccc(O)cc1)C(=O)NCC(=O)O` [lassotide 24] (GGAGHVPEYFVRGDLQSFYG-OH; lactam N-8; C-terminus assumed): the IC50 in experiment [1] came out at 6 nM; in experiment [2], 13 nM; in experiment [4], 7 nM. In experiment [3], the “improvement in potency (IC50) for αvβ6/8 relative to parent lassotide” value was “up to 7 fold”.

The term IC50 denotes the concentration that gives 50% inhibition. Low readings indicate greater potency in that assay, high ones weaker potency in that assay.
